Experiments:
Format in all cases: cell-based
[1] = system: mouse pancreatic β cell line MIN6; assay: Insulin secretion from MIN6 in KRBH buffer (immunoassay); details: for insulin secretion enhancing activity: 22 mM glucose KRBH, 90 minutes; for insulin secretion activity in BSA-containing buffer / insulin secretion enhancing activity in buffer containing Nifedipine / insulin secretion enhancing activity in PD98059-containing buffer / insulin secretion enhancing activity, glucose dependency: 10 μM fatty acid; for insulin secretion activity in BSA-containing buffer: 0.1% fatty acid-free BSA; for insulin secretion enhancing activity in buffer containing Nifedipine: Nifedipine 10 μM; for insulin secretion enhancing activity in PD98059-containing buffer: PD98059 50 μM; for insulin secretion enhancing activity, glucose dependency: high glucose level conditions of at least 11 mM (0, 5.5, 11, 22 mM tested); for insulin secretion enhancing activity in buffer without Ca^2+ ions: 10 μM, no Ca^2+ ions, 0.1 mM EGTA, 22 mM glucose; for insulin secretion enhancing activity in m40i103-introduced MIN6: GPR40-specific siRNA m40i103 introduced; for insulin secretion enhancing activity in MIN6 introduced with Scramble II duplex siRNA: random siRNA control
Experimental: The mouse pancreatic β cell line MIN6 incubated in a flask was scraped in PBS containing 2.5 mM EDTA and plated in a 96-well plate followed by incubation for 2 days. The medium used was the same as in EXAMPLE 24, namely, 4.5 g/l of glucose-containing Dulbecco's Modified Eagle Medium (DMEM, Invitrogen, Inc.) supplemented with 15% fetal calf serum (ThermoTrace, Inc.), 5.5 μM 2-mercaptethanol (Invitrogen, Inc.), 20 mM HEPES pH 7.3, 100 U/ml penicillin and 100 μg/ml streptomycin. The cells were washed twice with modified Krebs-Ringer bicarbonate buffer (KRBH, 116 mM NaCl, 4.7 mM KCl, 1.2 mM KH2PO4, 1.2 mM MgSO4, 2.5 mM CaCl2, 25 mM NaHCO3, 24 mM HEPES, pH 7.3), followed by preincubation at 37° C. in 5% CO2 for 30 minutes. The fatty acid diluted/prepared using the aforesaid KRBH buffer added with 22 mM glucose was added to the cells after the preincubation, followed by incubation under the conditions of 37° C. in 5% CO2 for 90 minutes. After the incubation, the supernatant of the cells was recovered and stored in a frozen state. The insulin content in the supernatant was assayed using an insulin immunoassay kit commercially available (Amersham Pharmacia, Inc.).
Based on the method of EXAMPLE 25, effects of glucose level when added with fatty acids were examined. The level of glucose, which was added to KRBH upon the addition of fatty acids, was varied to 0, 5.5, 11 and 22 mM to study the effects.
The insulin secretion enhancing activity in the m40i103-introduced MIN6 cells using HVJ Envelope VECTOR KIT GenomONE based on the method of EXAMPLE 18 was examined. The insulin secretion enhancing activity by fatty acids was examined according to the method of EXAMPLE 25.
Based on the procedures of EXAMPLE 25, an essential prerequisite of Ca^2+ ions in the extracellular fluid was examined. In preincubation and incubation with a sample, Ca^2+ ions were removed and 0.1 mM EGTA, which was a reagent for chelating Ca^2+ ions, was further added, and then the insulin secretion enhancing activity by fatty acids was examined in this case.
Based on the method of EXAMPLE 25, effects of Ca^2+ channel blocker (Nifedipine) and MAP kinase inhibitor (PD98059) were examined. In preincubation and incubation with a sample, the insulin secretion enhancing activity by fatty acids was examined when Nifedipine (10 μM) or PD98059 (50 μM) was added.
It is known that fatty acids have the property of binding to albumin. Based on the method of EXAMPLE 25, effects were examined when bovine serum albumin (BSA) was present. In preincubation and incubation with a sample, the insulin secretion activity by fatty acids was examined when 0.1% BSA was added to the buffer.

human GPR40 = target: T1, human GPR40 (Homo sapiens, UniProt O14842); assay: EC50 by FLIPR calcium assay in CHO cells stably expressing human GPR40; details: intracellular calcium, FLIPR, stable CHO line; read-out: EC50 Human GPR40
T1 construct: The resulting fragment (ca. 1 kb) was introduced into vector pAKKO-111, which was used for transfection of CHO cells; expressed in transfected cells
Experimental: (§1) For determination of EC50 values, the CHO cell lines in which human-, mouse- and rat-derived GPR40 was stably expressed were used. Unless otherwise indicated, these CHO cell lines were incubated in α-MEM medium (Invitrogen) supplemented with 10% fetal calf serum (Invitrogen).
(§2) On the day before assay, the cells incubated to almost confluent stage were rinsed with PBS (Invitrogen), then scraped in 0.05% trypsin-EDTA solution (Invitrogen) and recovered by centrifugal operation. The number of the cells obtained was counted and diluted so as to contain 3×10^5 cells/1 mL of the medium. The dilution was dispensed in a Black welled 96-well plate (Coster) in 100 μL/well, followed by incubation overnight in a CO2 incubator. To the thus prepared CHO cells, various test samples were added and the changes in intracellular calcium level in this case were measured using FLIPR (Molecular Device). In order to determine the changes in the intracellular calcium ion level on FLIPR, the cells were pre-treated by the following procedures.
(§3) First, for the purpose of adding a fluorescent dye Fluo-3 AM (DOJIN) to the cells or washing the cells immediately before the FLIPR assay, an assay buffer was prepared. A solution obtained by adding 20 mL of 1M HEPES (pH 7.4) (DOJIN) to 1000 mL of HBSS (Invitrogen) was prepared (hereinafter HBSS/HEPES solution), to which 10 mL of a solution mixture obtained by dissolving 710 mg of Probenecid (Sigma) in 5 mL of 1N NaOH and further adding 5 mL of HBSS/HEPES solution was added. The resulting solution was used as the assay buffer. Next, 50 μg of Fluo-3AM was dissolved in 21 μL of DMSO (Wako) and an equal volume of 20% Pulronic acid (Molecular Probes) was added to and mixed with the solution. The mixture was then added to 10.6 mL of the assay buffer supplemented with 105 μL of fetal calf serum to prepare a fluorescent dye solution. […], the medium for the CHO cells again plated in a Black welled 96-well plate was removed. Immediately thereafter, the fluorescent dye solution was dispensed in 100 μL each/well and the cells were incubated in a CO2 incubator for an hour so that the fluorescent dye was taken up into the cells. The cells after the incubation was washed with the assay buffer described above and set on FLIPR. […] After the pre-treatment above was made, the changes in intracellular calcium level after the addition of various test samples were measured on FLIPR.

Mouse GPR40 [2] = target: T2, Mouse GPR40 (Mus musculus, UniProt Q76JU9); assay: EC50 by FLIPR calcium assay in CHO cells stably expressing mouse GPR40; details: intracellular calcium, FLIPR, stable CHO line; read-out: EC50 Mouse GPR40
T2 construct: expressed in transfected cells
Experimental: as §1, §2, §3

Mouse GPR40 [3] = target: T2, Mouse GPR40; assay: cAMP production in mouse GPR40-expressed CHO cells; details: 10 minutes; for cAMP production activity, presence of forskolin: 2 μM forskolin
Experimental: Human and mouse GPR40-expressed CHO cells were incubated for 20 hours in a 96-well Plate at a density of 1×10^5/well. After the cells were washed twice with 100 μl of Assay Buffer (DMEM (Invitrogen) containing 0.1 mM IBMX (Wako Pure Chemical) and 0.1 mM Ro-20-1724 (Biomol)), DHA, solutions of linoleic acid and […] (both by SIGMA) in Assay Buffer in the presence or absence of 2 μM forskolin (Wako Pure Chemical) were added to the cells, followed by reacting at 37° C. for 10 minutes. After the reaction, the cells were lysed in accordance with the formulation of cAMP Screen (ABI) and the cAMP level in the cells was assayed.

T2 sequence (Q76JU9 whole entry): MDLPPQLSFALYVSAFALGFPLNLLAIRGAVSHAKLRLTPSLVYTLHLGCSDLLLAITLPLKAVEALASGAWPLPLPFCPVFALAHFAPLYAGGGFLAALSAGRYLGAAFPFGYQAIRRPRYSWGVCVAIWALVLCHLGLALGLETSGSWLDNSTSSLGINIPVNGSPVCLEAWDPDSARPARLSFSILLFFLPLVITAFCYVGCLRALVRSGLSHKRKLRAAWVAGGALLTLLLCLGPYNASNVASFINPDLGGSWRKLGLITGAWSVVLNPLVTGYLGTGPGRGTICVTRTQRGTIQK
T1 sequence (O14842 whole entry, the tested form may be a part): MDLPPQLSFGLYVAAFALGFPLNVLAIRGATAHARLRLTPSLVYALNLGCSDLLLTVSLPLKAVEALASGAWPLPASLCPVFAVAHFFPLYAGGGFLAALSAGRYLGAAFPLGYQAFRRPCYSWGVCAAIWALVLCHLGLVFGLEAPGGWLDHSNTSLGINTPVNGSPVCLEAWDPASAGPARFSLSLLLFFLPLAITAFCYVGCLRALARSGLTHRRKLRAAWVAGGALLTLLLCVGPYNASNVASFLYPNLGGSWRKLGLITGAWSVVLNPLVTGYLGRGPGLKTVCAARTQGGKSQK

| EC50 (human GPR40) [nM] | EC50 (Mouse GPR40 [2]) [nM] | cAMP production activity, presence of forskolin (Mouse GPR40 [3]) | SMILES | insulin secretion enhancing activity [1] | insulin secretion activity in BSA-containing buffer [1] | insulin secretion enhancing activity in buffer containing Nifedipine [1] | insulin secretion enhancing activity in PD98059-containing buffer [1] | insulin secretion enhancing activity, glucose dependency [1] | insulin secretion enhancing activity in buffer without Ca^2+ ions [1] | insulin secretion enhancing activity in m40i103-introduced MIN6 [1] | insulin secretion enhancing activity in MIN6 introduced with Scramble II duplex siRNA [1] | cAMP production activity, absence of forskolin (Mouse GPR40 [3]) |
| --- | --- | --- | --- | --- | --- | --- | --- | --- | --- | --- | --- | --- |
| 2400 ± 600 | 5400 ± 800 |  | CCCCC/C=C\C/C=C\C/C=C\C/C=C\CCCC(=O)O [Arachidonic acid (C20:4), Arachidonic acid] | significantly noted |  |  |  |  |  |  |  |  |
| 1800 ± 100 | 2900 ± 300 | no activity was shown | CCCCC/C=C\C/C=C\CCCCCCCC(=O)O [Linoleic acid (C18:2), Linoleic acid] | significantly noted | almost suppressed | not appreciated | same results as in ordinary buffer | remarkable | not observed | no longer noted | retained | did not show any cAMP production activity |
| 4600 ± 1600 | 5200 ± 600 | no activity was shown | CCCCC/C=C\C/C=C\C/C=C\CCCCC(=O)O [γ-Linolenic acid (C18:3), γ-Linolenic acid] | significantly noted |  |  |  |  | not observed | no longer noted | retained | did not show any cAMP production activity |

| SMILES | EC50 (human GPR40) [nM] | EC50 (Mouse GPR40 [2]) [nM] | cAMP production activity, presence of forskolin (Mouse GPR40 [3]) | insulin secretion enhancing activity [1] | insulin secretion activity in BSA-containing buffer [1] | insulin secretion enhancing activity in buffer containing Nifedipine [1] | insulin secretion enhancing activity in PD98059-containing buffer [1] | insulin secretion enhancing activity, glucose dependency [1] | insulin secretion enhancing activity in buffer without Ca^2+ ions [1] | insulin secretion enhancing activity in m40i103-introduced MIN6 [1] | insulin secretion enhancing activity in MIN6 introduced with Scramble II duplex siRNA [1] | cAMP production activity, absence of forskolin (Mouse GPR40 [3]) |
| --- | --- | --- | --- | --- | --- | --- | --- | --- | --- | --- | --- | --- |
| CC/C=C\C/C=C\C/C=C\C/C=C\C/C=C\C/C=C\CCC(=O)O [Docosahexaenoic acid (C22:6), 4Z,7Z,10Z,13Z,16Z,19Z-docosahexaenoic acid] | 1100 ± 300 | 16000 ± 4700 | no activity was shown | significantly noted |  |  |  |  |  |  |  | did not show any cAMP production activity |
| CCCCCCCC/C=C\CCCCCCCC(=O)O [Oleic acid (C18:1), Oleic acid] | 2000 ± 300 | 2700 ± 500 |  | significantly noted | almost suppressed | not appreciated | same results as in ordinary buffer | remarkable | not observed |  |  |  |
